{"source": "ChEMBL document CHEMBL3885881", "about": "“DrugMatrix”", "species_on_record": "Rattus norvegicus", "assay_type": "toxicity, organism-based, Sprague-Dawley", "conditions": "in vivo, sc, 24 h, route mini-PUMP - SUBCUTANEOUS, time 1 day, vehicle 100 % SALINE", "key": {"[1]": {"conditions": "0 mg/kg, tissue Blood, dose level Control"}, "[2]": {"conditions": "0 mg/kg, tissue Plasma, dose level Control"}, "[3]": {"conditions": "[…], tissue Blood, dose 0.77 mg/Kg, dose level High"}, "[4]": {"conditions": "[…], tissue Plasma, dose 0.77 mg/Kg, dose level High"}}, "description": "DrugMatrix - Regimen: Single", "data": [{"compound": "CNCC(O)c1ccc(O)c(O)c1", "note": "(configuration not stated) [RACEPINEPHRINE]", "values": [{"measurement": "ABSOLUTE EOSINOPHIL", "setting": "[1]", "result": 26.17, "unit": "CELLS/uL"}, {"measurement": "ABSOLUTE LYMPHOCYTE", "setting": "[1]", "result": 10985.83, "unit": "CELLS/uL"}, {"measurement": "ABSOLUTE MONOCYTE", "setting": "[1]", "result": 234.5, "unit": "CELLS/uL"}, {"measurement": "ABSOLUTE SEGMENTED NEUTROPHIL", "setting": "[1]", "result": 1753.5, "unit": "CELLS/uL"}, {"measurement": "BASOPHIL", "setting": "[1]", "result": 0, "unit": "%"}, {"measurement": "EOSINOPHIL", "setting": "[1]", "result": 0.17, "unit": "%"}, {"measurement": "ERYTHROCYTE COUNT", "setting": "[1]", "result": 5.64, "unit": "x10E6/uL"}, {"measurement": "HEMOGLOBIN", "setting": "[1]", "result": 12.68, "unit": "G/DL"}, {"measurement": "LEUKOCYTE COUNT", "setting": "[1]", "result": 13, "unit": "x10E3/uL"}, {"measurement": "LYMPHOCYTE", "setting": "[1]", "result": 84.5, "unit": "%"}, {"measurement": "MEAN CORPUSCULAR HEMOGLOBIN", "setting": "[1]", "result": 22.5, "unit": "pg"}, {"measurement": "MEAN CORPUSCULAR HEMOGLOBIN CONCENTRATION", "setting": "[1]", "result": 36.78, "unit": "G/DL"}, {"measurement": "MEAN CORPUSCULAR VOLUME", "setting": "[1]", "result": 61.18, "unit": "fL"}, {"measurement": "NEUTROPHIL", "setting": "[1]", "result": 13.5, "unit": "%"}, {"measurement": "NUCLEATED RED BLOOD CELLS", "setting": "[1]", "result": "0.17 /100WBC"}, {"measurement": "PLATELET COUNT", "setting": "[1]", "result": 679.17, "unit": "x10E3/uL"}, {"measurement": "ALANINE AMINOTRANSFERASE", "setting": "[2]", "result": 42.67, "unit": "u/L"}, {"measurement": "ALBUMIN", "setting": "[2]", "result": 3.77, "unit": "G/DL"}, {"measurement": "ALKALINE PHOSPHATASE", "setting": "[2]", "result": 291.17, "unit": "u/L"}, {"measurement": "ASPARTATE AMINOTRANSFERASE", "setting": "[2]", "result": 74.5, "unit": "u/L"}, {"measurement": "BLOOD UREA NITROGEN", "setting": "[2]", "result": 15.33, "unit": "mg/dL"}, {"measurement": "CARBON DIOXIDE", "setting": "[2]", "result": 30, "unit": "mmol/L"}, {"measurement": "CHLORIDE", "setting": "[2]", "result": 100.83, "unit": "MEQ/L"}, {"measurement": "CHOLESTEROL", "setting": "[2]", "result": 65.33, "unit": "mg/dL"}, {"measurement": "CREATININE", "setting": "[2]", "result": 0.15, "unit": "mg/dL"}, {"measurement": "LACTATE DEHYDROGENASE", "setting": "[2]", "result": 162.67, "unit": "u/L"}, {"measurement": "LIPASE", "setting": "[2]", "result": 8.5, "unit": "u/L"}, {"measurement": "PHOSPHORUS", "setting": "[2]", "result": 12.2, "unit": "mg/dL"}, {"measurement": "POTASSIUM", "setting": "[2]", "result": 5.73, "unit": "MEQ/L"}, {"measurement": "SODIUM", "setting": "[2]", "result": 144.7, "unit": "MEQ/L"}, {"measurement": "TOTAL BILIRUBIN", "setting": "[2]", "result": 0.15, "unit": "mg/dL"}, {"measurement": "TOTAL PROTEIN", "setting": "[2]", "result": 5.87, "unit": "G/DL"}, {"measurement": "URIC ACID", "setting": "[2]", "result": 1.93, "unit": "mg/dL"}, {"measurement": "ABSOLUTE EOSINOPHIL", "setting": "[3]", "result": 58.33, "unit": "CELLS/uL"}, {"measurement": "ABSOLUTE LYMPHOCYTE", "setting": "[3]", "result": 10774, "unit": "CELLS/uL"}, {"measurement": "ABSOLUTE MONOCYTE", "setting": "[3]", "result": 283.33, "unit": "CELLS/uL"}, {"measurement": "ABSOLUTE SEGMENTED NEUTROPHIL", "setting": "[3]", "result": 3051, "unit": "CELLS/uL"}, {"measurement": "BASOPHIL", "setting": "[3]", "result": 0, "unit": "%"}, {"measurement": "ERYTHROCYTE COUNT", "setting": "[3]", "result": 5.86, "unit": "x10E6/uL"}, {"measurement": "HEMOGLOBIN", "setting": "[3]", "result": 12.93, "unit": "G/DL"}, {"measurement": "LEUKOCYTE COUNT", "setting": "[3]", "result": 14.17, "unit": "x10E3/uL"}, {"measurement": "LYMPHOCYTE", "setting": "[3]", "result": 76.33, "unit": "%"}, {"measurement": "MEAN CORPUSCULAR HEMOGLOBIN", "setting": "[3]", "result": 22.1, "unit": "pg"}, {"measurement": "MEAN CORPUSCULAR HEMOGLOBIN CONCENTRATION", "setting": "[3]", "result": 36.47, "unit": "G/DL"}, {"measurement": "MEAN CORPUSCULAR VOLUME", "setting": "[3]", "result": 60.53, "unit": "fL"}, {"measurement": "NEUTROPHIL", "setting": "[3]", "result": 21.33, "unit": "%"}, {"measurement": "NUCLEATED RED BLOOD CELLS", "setting": "[3]", "result": "0.67 /100WBC"}, {"measurement": "PLATELET COUNT", "setting": "[3]", "result": 983, "unit": "x10E3/uL"}, {"measurement": "ALBUMIN", "setting": "[4]", "result": 4.03, "unit": "G/DL"}, {"measurement": "ALKALINE PHOSPHATASE", "setting": "[4]", "result": 374, "unit": "u/L"}, {"measurement": "BLOOD UREA NITROGEN", "setting": "[4]", "result": 11.67, "unit": "mg/dL"}, {"measurement": "CHLORIDE", "setting": "[4]", "result": 100.33, "unit": "MEQ/L"}, {"measurement": "CHOLESTEROL", "setting": "[4]", "result": 88.67, "unit": "mg/dL"}, {"measurement": "CREATININE", "setting": "[4]", "result": 0.15, "unit": "mg/dL"}, {"measurement": "GLUCOSE", "setting": "[4]", "result": 283.33, "unit": "mg/dL"}, {"measurement": "LACTATE DEHYDROGENASE", "setting": "[4]", "result": 103.67, "unit": "u/L"}, {"measurement": "LIPASE", "setting": "[4]", "result": 9, "unit": "u/L"}, {"measurement": "PHOSPHORUS", "setting": "[4]", "result": 15.53, "unit": "mg/dL"}, {"measurement": "POTASSIUM", "setting": "[4]", "result": 5.99, "unit": "MEQ/L"}, {"measurement": "SODIUM", "setting": "[4]", "result": 145.87, "unit": "MEQ/L"}, {"measurement": "TOTAL BILIRUBIN", "setting": "[4]", "result": 0.13, "unit": "mg/dL"}, {"measurement": "URIC ACID", "setting": "[4]", "result": 3.3, "unit": "mg/dL"}]}]}
